Measured values reported in patent publication US20120100361A1, “ANTISEPTIC COMPOSITION FOR ENGINEERING WOOD PRODUCTION, AND ENGINEERING WOOD” (SDS BIOTECH K.K., priority 2009, published 2012).

tested on: Trametes versicolor; assay: Test for antiseptic effects of preservative plywood (JIS K1571:2004); type: cell-based; conditions: glue line method; summary of Tables 2 and 3
Description: 1000 g of urea melamine resin (PWP-60, manufactured by Oshika Corporation) was added to 180 g of wheat flour and fully kneaded to thereby obtain a kneaded product. 8 g of ammonium chloride was added as a hardening agent to the kneaded product, and a solution of each of the compounds of Example 1 and Comparative Example 1, 2 and 5 to 25 was further added thereto so that the final concentrations of the compound in the wood become 150, 100, 50 and 25 g/m^3 and kneaded. 18 g of the above kneaded product was applied onto each of the bonding plane of the three red lauan veneer sheets having an area of 30 x 30 cm and thickness of 0.85 mm/2.4 mm/0.85 mm. After bonding the three sheets to each other, the sheets were subjected to cold pressing at room temperature for 20 minutes and the thermal pressure of 120° C. (10 kgf/cm^2) was applied to the sheets for two minutes to obtain the target plywood. Each of the prepared plywood was processed into the size of 20×20×4.1 mm to serve as a test sample.
The samples of the plywood and LVL prepared in Preparation Examples 2 and 3 were evaluated by the test for antiseptic effects for the drug pressure treatment according to JIS K1571:2004. The weather resistance operation and the test method for the antiseptic effect were performed according to the above test method.

Which “amount showing the antiseptic effect on Trametes versicolor” value does the source give for `CCCCC(O)(Cn1cncn1)c1ccc(Cl)cc1Cl` (centres unmarked) [Comparative Example 1, hexaconazole] here?
The value was at least 50 g/m^3.

With `C[Si](C)(C)CC(O)(Cn1cncn1)c1ccc(F)cc1F` (centres unmarked) [Comparative Example 2, 2-(2,4-difluorophenyl)-1-(1H-1,2,4-triazole-1-yl)-3-(trimethylsilyl)propane-2-ol] as the compound, how does the “amount showing the antiseptic effect on Trametes versicolor” value read?
Its value is at least 100 g/m^3.

tested on: not listed separately; assay: Test for miscibility with a phenol resin glue; type: physicochemical; design: key to Phenol resin status after 60 minutes: ∘: No change; x: Obvious increase in the viscosity was seen and it seems impossible to apply the composition onto the veneer sheet; conditions: 10% (w/w) solution added to phenol resin glue Deernol D-117 kneaded product; viscosity change visually observed for 60 minutes
Description: The following compounds, which are known to have wood preservative activity, are dissolved in methyl ethylene triglycol to reach a concentration of 10% (w/w) to thereby obtain a solution of each of the compounds.
1000 g of phenol resin-based glue Deernol D-117 (manufactured by Oshika Corporation), 70 g of wheat flour and 100 g of calcium carbonate were mixed and well kneaded. Each of the solutions of Example 1 and Comparative Example 1 to 25 was added to 17 g of the kneaded product and mixed well together. The viscosity change of the glue was visually observed for 60 minutes. […] Although a number of documents listed as the prior art documents and the like teach that quaternary ammonium compounds can be applied to the glue line treatment, it is clear that those compounds have a problem for practical use (Comparative Examples 3 and 4). On the other hand, it was confirmed that the other compounds including that of Example has no problem from the viewpoint of compatibility.

For `COC(=O)N(OC)c1ccccc1COc1ccn(-c2ccc(Cl)cc2)n1` [Comparative Example 22, pyraclostrobin], which “Phenol resin status after 60 minutes” value is on record?
The value was “∘”.

For `Clc1ccc(C2(Cn3cncn3)OCCO2)c(Cl)c1` [Comparative Example 7, azaconazole], which “Phenol resin status after 60 minutes” value is on record?
The value was “∘”.

Which “Phenol resin status after 60 minutes” value does the source give for `CCCCCCCCCC[N+](C)(C)CCCCCCCCCC.[Cl-]` [Comparative Example 4, didecyldimethylammonium chloride] here?
The value was “x”.

Which “Phenol resin status after 60 minutes” value does the source give for `CC1(C)CCC(Cc2ccc(Cl)cc2)C1(O)Cn1cncn1` (centres unmarked) [Comparative Example 14, metconazole] here?
The value was “∘”.

For `CCCCC(O)(Cn1cncn1)c1ccc(Cl)cc1Cl` (centres unmarked) [Comparative Example 1, hexaconazole], which “Phenol resin status after 60 minutes” value is on record?
Its value is “∘”.

Which “Phenol resin status after 60 minutes” value does the source give for `C[Si](C)(C)CC(O)(Cn1cncn1)c1ccc(F)cc1F` (centres unmarked) [Comparative Example 2, 2-(2,4-difluorophenyl)-1-(1H-1,2,4-triazole-1-yl)-3-(trimethylsilyl)propane-2-ol] here?
Its value is “∘”.

With `C[Si](Cn1cncn1)(c1ccc(F)cc1)c1ccc(F)cc1` [Comparative Example 10, flusilazole] as the compound, how does the “Phenol resin status after 60 minutes” value read?
The value was “∘”.

With `CC(C1CC1)C(O)(Cn1cncn1)c1ccc(Cl)cc1` (centres unmarked) [Comparative Example 5, cyproconazole] as the compound, how does the “Phenol resin status after 60 minutes” value read?
The value was “∘”.

Which “Phenol resin status after 60 minutes” value does the source give for `CC(C)(C)C(O)(CCc1ccc(Cl)cc1)Cn1cncn1` (centres unmarked) [Comparative Example 6, tebuconazole] here?
Its value is “∘”.

Which “Phenol resin status after 60 minutes” value does the source give for `CC(C)C1CCC(Cc2ccc(Cl)cc2)C1(O)Cn1cncn1` (centres unmarked) [Comparative Example 13, ipconazole] here?
Its value is “∘”.

For `N#Cc1c(Cl)c(Cl)c(Cl)c(C#N)c1Cl` [Comparative Example 25, chlorothalonil], which “Phenol resin status after 60 minutes” value is on record?
The value was “∘”.

Which “Phenol resin status after 60 minutes” value does the source give for `CC(C)(C)C(=O)C(Oc1ccc(Cl)cc1)n1cncn1` (centres unmarked) [Comparative Example 19, triadimefon] here?
Its value is “∘”.

Which “Phenol resin status after 60 minutes” value does the source give for `FC(F)C(F)(F)OCC(Cn1cncn1)c1ccc(Cl)cc1Cl` (centres unmarked) [Comparative Example 18, tetraconazole] here?
Its value is “∘”.

Which “Phenol resin status after 60 minutes” value does the source give for `CC1(C)CCC(=Cc2ccc(Cl)cc2)C1(O)Cn1cncn1` (centres unmarked) [Comparative Example 20, triticonazole] here?
Its value is “∘”.

Which “Phenol resin status after 60 minutes” value does the source give for `CCCC1COC(Cn2cncn2)(c2ccc(Cl)cc2Cl)O1` (centres unmarked) [Comparative Example 17, propiconazole] here?
Its value is “∘”.

Which “Phenol resin status after 60 minutes” value does the source give for `OC(Cn1cncn1)(c1ccc(F)cc1)c1ccccc1F` (centres unmarked) [Comparative Example 11, flutriafol] here?
Its value is “∘”.

With `N#CC(CCc1ccc(Cl)cc1)(Cn1cncn1)c1ccccc1` (centres unmarked) [Comparative Example 9, fenbuconazole] as the compound, how does the “Phenol resin status after 60 minutes” value read?
Its value is “∘”.

With `C[Si](C)(C)CC(O)(Cn1cncn1)c1ccc(F)cc1` (centres unmarked) [Comparative Example 8, simeconazole] as the compound, how does the “Phenol resin status after 60 minutes” value read?
The value was “∘”.

For `Clc1ccc(CSC(Cn2cncn2)=Nc2ccc(Cl)cc2Cl)cc1` [Comparative Example 12, imibenconazole], which “Phenol resin status after 60 minutes” value is on record?
The value was “∘”.

Which “Phenol resin status after 60 minutes” value does the source give for “benzalkonium chloride [Comparative Example 3]” here?
The value was “x”.

With `CCCC(Cn1cncn1)c1ccc(Cl)cc1Cl` (centres unmarked) [Comparative Example 16, penconazole] as the compound, how does the “Phenol resin status after 60 minutes” value read?
Its value is “∘”.

Which “Phenol resin status after 60 minutes” value does the source give for `CCCCC(C#N)(Cn1cncn1)c1ccc(Cl)cc1` (centres unmarked) [Comparative Example 15, myclobutanil] here?
Its value is “∘”.

same assay, conditions: summary of Table 1

With `CCCCCCCCCC[N+](C)(C)CCCCCCCCCC.[Cl-]` [Comparative Example 4, didecyldimethylammonium chloride] as the compound, how does the “compatibility with phenol resin glue (in words)” value read?
The value was “harden the glue”.

For “benzalkonium chloride [Comparative Example 3]”, which “compatibility with phenol resin glue (in words)” value is on record?
The value was “harden the glue”.
